Data reported in patent publication US20120101099A1, “HISTONE DEACETYLASE INHIBITORS” (ANTHEM BIOSCIENCES PRIVATE LIMITED, priority 2009, published 2012).
Where a name gives a salt, the structure may show the parent alone. Read-outs that look alike come from different tables or passages of the source.

Legend:
[1] = target: T1, CYP 3A4 (Homo sapiens, UniProt P08684); experiment: Cytochrome-P450 isoforms liability determination; assay type: in vitro ADME; details: fluorescence based kit
T1 construct: purchased
Method: To determine the test compound liability towards Human cytochrome 450 (hCYP450) Isoforms fluorescence based screening kits.
Brief procedure: 2× test compounds were prepared by dilution with deionized water. A serial dilution of the test compound was done. 2× solution of known inhibitor were used as a positive control. 40 μL of the 2× solution that is prepared was added to the desired wells. Two replicates were included for every compound. 50 μL of the Master premix (premix of CYP450 Baclosomes, reagents and regenerating system) was dispensed into each well. The plate was incubated for 20 min at room temperature to allow the compounds to interact with the CYP450enzymes. The reaction was started by adding 10 μL of the substrate and NADP^+ mixture. The plate was incubated for the desired amount of time, and then 10 μL of stop reagent was added to each well to quench the reaction. The fluorescence was measured in the fluorescent plate reader at excitation and emission wavelengths as recommended, depending on the substrate used.

[2] = system: DU-145; experiment: Anti-proliferative activity (GI50); assay type: cell-based; details: Homo sapiens
Method: (§1) Cells were seeded in a 96-well cell culture plates at a concentration of 10,000 cells per well and incubated at 37° C. in CO2 incubator.
(§2) Twenty-four hours later cells were treated with different concentrations (100, 10, 1, 0.1, and 0.01 μM) of compound dissolved in DMSO and incubated for 48 hours. For To measurement, 24 hours after seeding the cells, 20 μL of 3-(4.5-dimethyl-2- thiazolyl)-2,5-diphenyl-2H-tetrazolium (MTT) solution per well was added to the T0 plate and incubated for 3 hours at 37° C. in a CO2 incubator.
(§3) The plate containing cells and test compounds was treated similarly after 48 hours of incubation. After 3 hours of MTT addition, well contents were aspirated carefully followed by addition of 100 μL DMSO per well. Plates were agitated to ensure dissolution of the formazan crystals in DMSO and absorbance was read at 570 nm (A570). […] From the percentage growths a dose response curve was generated and GI50 values were interpolated from the growth curves.

[3] = system: Hela-S3; experiment: Anti-proliferative activity (GI50); assay type: cell-based; details: Homo sapiens
Method: as §1, §2, §3

[4] = system: RPMI-8226; experiment: Anti-proliferative activity (GI50); assay type: cell-based; details: Homo sapiens
Method: as §1, §2, §3

[5] = system: HCT-15; experiment: Anti-proliferative activity (GI50); assay type: cell-based; details: Homo sapiens
Method: as §1, §2, §3

[6] = system: PANC-1; experiment: Anti-proliferative activity (GI50); assay type: cell-based; details: Homo sapiens
Method: as §1, §2, §3

[7] = system: SH-SY-5Y; experiment: Anti-proliferative activity (GI50); assay type: cell-based; details: Homo sapiens, SH-SY5Y, read-out: Anti-proliferative activity (GI50) SH-SY-5Y
Method: as §1, §2, §3

[8] = system: IMR-32; experiment: Anti-proliferative activity (GI50); assay type: cell-based; details: Homo sapiens
Method: as §1, §2, §3

[9] = system: Ca Ski; experiment: Anti-proliferative activity (GI50); assay type: cell-based; details: Homo sapiens, read-out: Anti-proliferative activity (GI50) Ca Ski
Method: as §1, §2, §3

[10] = system: A549; experiment: Cell proliferation assay (MTT); assay type: cell-based; details: Homo sapiens
Method: as §1, §2, §3

[11] = system: PC-3; experiment: Cell proliferation assay (MTT); assay type: cell-based; details: Homo sapiens
Method: as §1, §2, §3

[12] = system: HT-29; experiment: Cell proliferation assay (MTT); assay type: cell-based; details: Homo sapiens
Method: as §1, §2, §3

[13] = system: cleaved PARP; experiment: PARP cleavage in HeLa cells (Western Blot); assay type: cell-based; parameters: key: represented by the symbol ‘+’ which indicates the relative extent of modulation; ++: represented by the symbol ‘+’ which indicates the relative extent of modulation; +++: represented by the symbol ‘+’ which indicates the relative extent of modulation; ++++: represented by the symbol ‘+’ which indicates the relative extent of modulation; details: 24 hrs, 0.03-3.0 μM
Method: HeLa Cells were seeded (0.3×10^6 Cells/well) into a 6 well plate and after 24 hrs compounds were added in 5 different concentrations (0.03, 0.1, 0.3, 1.0, 3.0 μM). After 24 hrs cells were lysed and cellular extract was used for assessing apoptotic activity by detection of cleaved PARP by Western Blot using monoclonal Anti-poly(ADP-Ribose) polymerase antibody, Clone C-2-10(Sigma).

[14] = system: acetyl-Histone H3; experiment: Histone hyperacetylation in Hela cells (Western Blot); assay type: cell-based; parameters: key: represented by the symbol ‘+’ which indicates the relative extent of modulation; ++: represented by the symbol ‘+’ which indicates the relative extent of modulation; +++: represented by the symbol ‘+’ which indicates the relative extent of modulation; ++++: represented by the symbol ‘+’ which indicates the relative extent of modulation; details: 24 hrs, 0.03-3.0 μM
Method: (§4) HeLa Cells were seeded at a density of 0.4×10^6 Cells/well into 6 well plates and incubated for 24 h The compounds were tested at 5 different concentrations (0.03, 0.1, 0.3, 1.0, 3.0 μM) with corresponding control. After 24 hrs cells were lysed and histone proteins were extracted as per established protocols and the extract was used for measuring H3 and H4 hyperacetylation by Western Blot using Anti-acetyl-Histone H3 and Anti-acetyl-Histone H4 (Millipore, USA) antibodies.

[15] = system: acetyl-Histone H4; experiment: as above; assay type: cell-based; parameters: key: represented by the symbol ‘+’ which indicates the relative extent of modulation; ++: represented by the symbol ‘+’ which indicates the relative extent of modulation; +++: represented by the symbol ‘+’ which indicates the relative extent of modulation; ++++: represented by the symbol ‘+’ which indicates the relative extent of modulation; details: 24 hrs, 0.03-3.0 μM
Method: as §4

[16] = system: HL-60 (AML) cells; experiment: Differentiation assay; assay type: cell-based; details: Homo sapiens, 72 h; HL-60 cells, 3 days, H2 DCF-DA oxidation
Method: HL-60 (AML) cells were seeded (5×10^4 cells/well) into a 96 well plate and after 24 hrs cells were treated for 3 days with compounds in 8 different concentration (3000, 1000, 300, 100, 30, 10, 3, 1 nM) including control and 60 μM of H2 DCF-DA probe added to the cells. After 2 hours incubation oxidation of H2 DCF-DA was measured.

[17] = DU-145, Table 9, Prostate, read-out: Anti-proliferative activity (GI50) DU-145
[18] = HeLa S3, Table 9, Cervix, read-out: Anti-proliferative activity (GI50) Hela-S3
[19] = RPMI-8226, Table 9, Leukemia, read-out: Anti-proliferative activity (GI50) RPMI-8226
[20] = HCT-15, Table 9, Colon, read-out: Anti-proliferative activity (GI50) HCT-15
[21] = PANC-1, Table 9, Pancreas, read-out: Anti-proliferative activity (GI50) PANC-1
[22] = IMR-32, Table 9, Brain, read-out: Anti-proliferative activity (GI50) IMR-32
[23] = A549, Table 1, MTT, 48 hours, read-out: Cell growth inhibition (GI50 in μM) A549
[24] = A549, Table 9, Lung, read-out: Anti-proliferative activity (GI50) A549
[25] = PC-3, Table 1, MTT, 48 hours, read-out: Cell growth inhibition (GI50 in μM) PC-3
[26] = PC-3, Table 9, Prostate, read-out: Anti-proliferative activity (GI50) PC-3
[27] = HT-29, Table 9, Colon, read-out: Anti-proliferative activity (GI50) HT-29
[28] = HT-29, Table 1, MTT, 48 hours, read-out: Cell growth inhibition (GI50 in μM) HT-29

T1 sequence (P08684 whole entry, canonical isoform): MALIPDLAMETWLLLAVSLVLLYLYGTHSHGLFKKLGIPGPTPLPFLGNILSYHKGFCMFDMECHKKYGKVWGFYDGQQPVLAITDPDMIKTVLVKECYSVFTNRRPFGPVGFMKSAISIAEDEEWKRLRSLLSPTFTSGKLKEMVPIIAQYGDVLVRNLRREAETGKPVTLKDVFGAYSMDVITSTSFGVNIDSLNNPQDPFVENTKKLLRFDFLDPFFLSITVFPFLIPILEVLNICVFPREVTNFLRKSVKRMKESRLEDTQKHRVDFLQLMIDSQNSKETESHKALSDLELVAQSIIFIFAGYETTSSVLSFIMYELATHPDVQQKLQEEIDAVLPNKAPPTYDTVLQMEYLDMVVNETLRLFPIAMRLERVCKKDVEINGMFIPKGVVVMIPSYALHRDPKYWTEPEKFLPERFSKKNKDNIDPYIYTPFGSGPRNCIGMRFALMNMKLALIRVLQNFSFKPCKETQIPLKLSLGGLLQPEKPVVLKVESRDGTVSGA

| SMILES | IC50 [1] | GI50 [2, 17] | GI50 [3, 18] | GI50 [4, 19] | GI50 [5, 20] | GI50 [6, 21] | GI50 ([7]; Table 9, Brain) | GI50 [10, 23] | GI50 [10, 24] | GI50 [11, 25] | GI50 [11, 26] | GI50 [12, 27] | GI50 [12, 28] | EC50 [16] | GI50 [8, 22] | GI50 ([9]; Table 9, Cervix) | PARP cleavage [13] | Target modulation: H3 acetylation [14] | Target modulation: H4 acetylation [15] | other results |
| --- | --- | --- | --- | --- | --- | --- | --- | --- | --- | --- | --- | --- | --- | --- | --- | --- | --- | --- | --- | --- |
| CN(C)Cc1ccc(-c2cn(Cc3ccc(/C=C/C(=O)NO)cc3)nn2)cc1 [Example 21] | 28.5 µM | 100 ± 40 nM | 200 ± 80 nM | 300 ± 160 nM | 1.8 ± 1.14 µM | 1400 nM | 100 nM | 2.2 ± 2.3 µM | 2.2 ± 2.22 µM | 11.3 ± 8.3 µM | 4.8 ± 1.4 µM | 2.1 ± 0.46 µM | – | – | 200 ± 40 nM | 1100 ± 730 nM | ++++ | +++ | ++++ | – |
| O=C(CCCCCCC(=O)Nc1ccccc1)NO [SAHA, Suberoylanilide Hydroxamic Acid, reference compound] | – | – | – | – | – | – | – | – | – | – | – | – | – | – | – | – | ++ | +++ | +++ | GI50 ([2]; DU-145, read-out: Anti-proliferative activity (GI50) DU-145): 1300 nM; GI50 ([3]; HeLa S3, read-out: Anti-proliferative activity (GI50) Hela-S3): 2900 ± 500 nM; GI50 ([4]; RPMI-8226, read-out: Anti-proliferative activity (GI50) RPMI-8226): 2200 ± 2300 nM; GI50 ([5]; HCT-15, read-out: Anti-proliferative activity (GI50) HCT-15): 5.2 ± 1.9 µM; GI50 ([6]; PANC-1, read-out: Anti-proliferative activity (GI50) PANC-1): 21900 nM; GI50 [7]: 800 ± 400 nM; GI50 ([8]; IMR-32, read-out: Anti-proliferative activity (GI50) IMR-32): 1800 ± 200 nM; GI50 [9]: 6000 ± 5300 nM; GI50 ([10]; A549, read-out: Anti-proliferative activity (GI50) A549): 5.9 ± 2.4 µM; GI50 ([11]; PC-3, read-out: Anti-proliferative activity (GI50) PC-3): 8.3 ± 0.6 µM; GI50 ([12]; HT-29, read-out: Anti-proliferative activity (GI50) HT-29): 3.6 ± 2.6 µM |
| O=C(NO)c1ccc(Cn2cc(-c3ccc(CN4CCCC4)cc3)nn2)cc1 [Example 8, N-Hydroxy-4-[4-(4-pyrrolidin-1-ylmethyl-phenyl)-[1,2,3]triazol-1-ylmethyl]-benzamide] | 28.3 µM | 200 ± 60 nM | 400 ± 90 nM | 400 ± 300 nM | 19.3 ± 3.8 µM | 1300 nM | 200 ± 80 nM | 4.1 ± 0.6 µM | 3.1 ± 1.99 µM | 16.8 ± 8.8 µM | 4.1 ± 0.38 µM | 1.3 ± 0.33 µM | 0.2 µM | 8.24 µM | 400 ± 90 nM | 1100 ± 490 nM | +++ | +++ | ++++ | – |

Second part, led by results:

| IC50 [1] | GI50 [2, 17] | GI50 [3, 18] | GI50 [4, 19] | GI50 [5, 20] | GI50 [6, 21] | GI50 ([7]; Table 9, Brain) | GI50 [10, 23] | GI50 [10, 24] | GI50 [11, 25] | GI50 [11, 26] | GI50 [12, 27] | GI50 [12, 28] | EC50 [16] | SMILES | GI50 [8, 22] | GI50 ([9]; Table 9, Cervix) | PARP cleavage [13] | Target modulation: H3 acetylation [14] | Target modulation: H4 acetylation [15] | other results |
| --- | --- | --- | --- | --- | --- | --- | --- | --- | --- | --- | --- | --- | --- | --- | --- | --- | --- | --- | --- | --- |
| 43.2 µM | 300 ± 124 nM | 600 ± 160 nM | 500 ± 430 nM | 4.1 ± 3.2 µM | 6600 nM | 200 ± 60 nM | 5 ± 1.6 µM | 4.5 ± 2.33 µM | 22 ± 5.4 µM | 13.4 ± 3.3 µM | 1.5 ± 0.65 µM | – | – | O=C(NO)c1ccc(Cn2cc(-c3ccc(CN4CCOCC4)cc3)nn2)cc1 [Example 9, N-Hydroxy-4-[4-(4-morpholin-4-ylmethyl-phenyl)-[1,2,3]triazol-1-ylmethyl]-benzamide] | 900 ± 201 nM | 1200 ± 220 nM | +++ | ++++ | ++++ | – |
| 53.3 µM | 79 ± 40 nM | 230 ± 120 nM | 150 ± 50 nM | 9.8 ± 4.3 µM | 1030 nM | 340 ± 33 nM | 1.7 ± 1 µM | 1.58 ± 1.1 µM | 12.6 ± 7.6 µM | 3.5 ± 2.7 µM | 0.15 ± 0.13 µM | 0.04 µM | 2.88 µM | O=C(/C=C/c1ccc(Cn2cc(-c3ccc(CN4CCCC4)cc3)nn2)cc1)NO [Example 16, N-Hydroxy-3-{4-[4-(4-pyrrolidin-1-ylmethyl-phenyl)-[1,2,3]triazol-1-ylmethyl]-phenyl}-acrylamide] | 250 ± 70 nM | 420 ± 150 nM | ++++ | ++ | ++++ | – |
| 12.6 µM | 100 ± 30 nM | 200 ± 20 nM | 200 ± 250 nM | 1.7 ± 0.89 µM | 4000 nM | 200 ± 30 nM | 2.5 ± 0.8 µM | 2 ± 1.52 µM | 4 ± 3.9 µM | 1.7 ± 1.02 µM | 0.4 ± 0.13 µM | 0.2 µM | 3.83 µM | O=C(/C=C/c1cccc(Cn2cc(-c3ccc(CN4CCOCC4)cc3)nn2)c1)NO [Example 25, N-Hydroxy-3-{3-[4-(4-morpholin-4-ylmethyl-phenyl)-[1,2,3]triazol-1-ylmethyl]-phenyl}-acrylamide hydrochloride] | 200 ± 20 nM | 400 ± 280 nM | +++ | ++++ | ++++ | – |
